Where a name gives a salt, the structure may show the parent alone. Read-outs that look alike come from different tables or passages of the source.
Legend:
[1] = system: prostaglandin synthesis; conditions: Humber et al., J. Med. Chem. 31, 1712-1719 (1988); U.S. Pat. No. 4,686,213; cited from earlier work
[2] = Humber et al., J. Med. Chem. 31, 1712-1719 (1988); cited from earlier work
[3] = target: T1, human COX-2 (rhCOX-2) (Homo sapiens, UniProt P35354); experiment: inhibition of microsomal human recombinant COX-2 (PGH2 converted to PGF2a, quantified by EIA); assay type: biochemical; conditions: for IC50: rhCOX-2, value in parentheses = IC50, 30 μM arachidonic acid, read-out: % Inhib of rhCOX-2 (IC50); for inhibition at 3 µM: rhCOX-2, at 3 μM; for inhibition at 1 µM: rhCOX-2, at 1 μM; for inhibition at 3.3 µM: rhCOX-2, at 3.3 μM (* sodium salt for Example 19)
T1 construct: made in house; host or cells: Sf9 or CHO cells (microsomal preparation)
T1 sequence (P35354 18-604): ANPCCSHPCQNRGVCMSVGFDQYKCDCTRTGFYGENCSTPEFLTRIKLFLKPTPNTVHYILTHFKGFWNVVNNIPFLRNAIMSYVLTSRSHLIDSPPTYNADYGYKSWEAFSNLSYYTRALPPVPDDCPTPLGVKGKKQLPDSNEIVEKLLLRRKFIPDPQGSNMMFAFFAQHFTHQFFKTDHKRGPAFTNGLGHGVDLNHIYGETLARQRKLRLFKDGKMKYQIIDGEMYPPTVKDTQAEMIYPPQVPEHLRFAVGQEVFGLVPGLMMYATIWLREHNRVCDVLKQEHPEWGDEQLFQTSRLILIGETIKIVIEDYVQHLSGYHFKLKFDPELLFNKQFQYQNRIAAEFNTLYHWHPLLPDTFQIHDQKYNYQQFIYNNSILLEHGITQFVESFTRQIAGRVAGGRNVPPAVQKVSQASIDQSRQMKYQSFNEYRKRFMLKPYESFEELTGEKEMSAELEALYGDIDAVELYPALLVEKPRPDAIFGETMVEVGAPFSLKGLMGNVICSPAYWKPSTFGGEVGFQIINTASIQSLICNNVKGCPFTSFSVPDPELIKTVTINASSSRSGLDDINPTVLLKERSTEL
Procedure: (§1) The microsomal human recombinant enzymes were diluted with buffer (100 mM Tris, pH 7.8 at 37° C.) containing 0.5 mM phenol (964 μl total volume). The enzyme preparations were preincubated with vehicle (DMSO) or compounds in DMSO (1% DMSO in final assay) for 30 min at […]
(§2) The reaction was incubated for 35 s (maximum level of PGH2 accumulation as determined from time course studies), and terminated by addition of 50-60 μL of SnCl2 (1 mg/ml) in 0.1N HCl. PGH2 is quantitatively converted to PGF2a by this reaction ([…] of total conversion). The pH of each tube is adjusted to pH 3.0-3.5 with 1N NaOH and extracted twice with 1.5 ml of ethyl acetate (75-90% efficiency per extraction). Combined ethyl acetate layers were dried under N2 (g) and redissolved in EIA buffer (2.0 ml), and PGF2a was quantified by EIA.

[4] = target: T2, human COX-1 (rhCOX-1) (Homo sapiens, UniProt P23219); experiment: inhibition of microsomal human recombinant COX-1 (PGH2 converted to PGF2a, quantified by EIA); assay type: biochemical
T2 construct: made in house; host or cells: Sf9 or CHO cells (microsomal preparation)
Procedure: as §1, §2

[5] = system: COX-2; conditions: Glaser et al., Eur. J. Pharmacol. 281, 107-111 (1995); cited from earlier work
[6] = cited from earlier work
[7] = Rogers et al., Neurology 43, 1609-1611 (1993); cited from earlier work
[8] = Table 1, rhCOX-1, at 90 μM, read-out: % Inhibition of rhCOX-1
[9] = Table 1, read-out: % Inhib of rhCOX-2
[10] = Table 2, read-out: % Inhib of rhCOX-2
[11] = Table 2, rhCOX-1, at 90 μM, read-out: % Inhibn of rhCOX-1
[12] = Table 3, read-out: Inhib rhCOX-2
[13] = Table 3, rhCOX-1, at 90 μM (* sodium salt for Example 19), read-out: % Inhib rhCOX-1

T2 sequence (P23219 24-599): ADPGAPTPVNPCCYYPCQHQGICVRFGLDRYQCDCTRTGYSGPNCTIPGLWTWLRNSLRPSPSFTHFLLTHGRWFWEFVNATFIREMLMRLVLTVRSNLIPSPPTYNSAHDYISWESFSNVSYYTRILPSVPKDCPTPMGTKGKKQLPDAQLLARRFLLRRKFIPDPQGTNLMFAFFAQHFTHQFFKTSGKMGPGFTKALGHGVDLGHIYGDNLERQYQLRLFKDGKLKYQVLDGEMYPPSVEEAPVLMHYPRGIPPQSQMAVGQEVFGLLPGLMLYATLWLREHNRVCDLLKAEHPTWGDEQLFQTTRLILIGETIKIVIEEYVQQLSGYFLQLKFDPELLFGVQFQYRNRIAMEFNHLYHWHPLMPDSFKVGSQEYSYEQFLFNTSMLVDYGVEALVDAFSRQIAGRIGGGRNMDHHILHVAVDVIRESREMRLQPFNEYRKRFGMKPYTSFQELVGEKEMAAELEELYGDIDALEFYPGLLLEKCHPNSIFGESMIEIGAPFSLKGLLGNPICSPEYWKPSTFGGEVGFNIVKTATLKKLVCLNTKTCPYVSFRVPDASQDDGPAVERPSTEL

SMILES: CCc1cccc2c3c([nH]c12)C(CC)(CC(=O)O)OCC3=O (stereo not shown) [4-oxo metabolite]
- activity in blocking prostaglandin synthesis [1]: active in blocking prostaglandin synthesis
- oral in vivo antiinflammatory activity [2]: had oral in vivo antiinflammatory activity

SMILES: CCC1(CC(=O)O)OCC(=O)c2c1[nH]c1ccccc21 (stereo not shown) [Example 1, (1-Ethyl-4-oxo-1,3,4,9-tetrahydro-pyrano[3,4-b]indol-1-yl)-acetic acid]
- IC50 ([3]; Table 1): 2.1 µM
- inhibition at 90 µM [4, 8]: 43%

SMILES: CCCC1(CC(=O)O)OCC(=O)c2c1[nH]c1ccccc21 (stereo not shown) [Example 2, (1-Propyl-4-oxo-1,3,4,9-tetrahydro-pyrano[3,4-b]indol-1-yl)-acetic acid]
- IC50 ([3]; Table 1): 3.2 µM
- inhibition at 90 µM [4, 8]: 44%

SMILES: COCC1(CC(=O)O)OCC(=O)c2c1[nH]c1ccccc21 (stereo not shown) [Example 3, (1-Methoxymethyl-4-oxo-1,3,4,9-tetrahydro-pyrano[3,4-b]indol-1-yl)-acetic acid]
- inhibition at 3 µM [3, 9]: 8%

SMILES: CCc1cccc2c3c([nH]c12)C(CC)(CC(=O)O)OCC3=O (stereo not shown) [Example 4, 1,8-Diethyl-4-oxo-1,3,4,9-tetrahydro-pyrano-[3,4-b]indole-1-acetic acid]
- IC50 ([3]; Table 1): 1.9 µM
- IC50 ([4]; Table 1, rhCOX-1, read-out: % Inhibition of rhCOX-1 (value in parentheses, IC50)): > 270 µM

SMILES: CCC1(CC(=O)O)OCC(=O)c2c1[nH]c1cccc(Cl)c21 (stereo not shown) [Example 5, (5-Chloro-1-ethyl-4-oxo-1,3,4,9-tetrahydro-pyrano[3,4-b]indol-1-yl)-aceticacid]
- IC50 ([3]; Table 1): 1.2 µM

SMILES: CCC1(CC(=O)O)OCC(=O)c2c1[nH]c1cccc(Br)c21 (stereo not shown) [Example 6, (5-Bromo-1-ethyl-4-oxo-1,3,4,9-tetrahydro-pyrano[3,4-b]indol-1-yl)-acetic acid]
- IC50 ([3]; Table 1): 1.1 µM

SMILES: CCC1(CC(=O)O)OCC(=O)c2c1[nH]c1cccc(C#N)c21 (stereo not shown) [Example 7, 5-Cyano-1-ethyl-4-oxo-1,3,4,9-tetrahydropyrano[3,4-b]indole-1-acetic acid]
- inhibition at 1 µM [3, 9]: 7%

SMILES: C=CCc1c(F)ccc2c3c([nH]c12)C(CC)(CC(=O)O)OCC3=O (stereo not shown) [Example 8, 8-Allyl-1-ethyl-7-fluoro-4-oxo-1,3,4,9-tetrahydropyrano[3,4-b]indole-1-acetic acid]
- IC50 ([3]; Table 1): 0.37 µM
- inhibition at 3 µM ([4]; Table 1, rhCOX-1, at 3 μM): 78%

SMILES: CCC1(CC(=O)O)CCC(=O)c2c1[nH]c1ccccc21 (stereo not shown) [Example 9, [1-Ethyl-4oxo-2,3,4,9-tetrahydro-1H-(carbazol-1-yl)]-acetic acid]
- inhibition at 3 µM [3, 10]: 26%

SMILES: CCc1cccc2c3c([nH]c12)C(CC)(CC(=O)O)CCC3=O (stereo not shown) [Example 10, [1,8-Diethyl-4-oxo-2,3,4,9-tetrahydro-1H-(carbazol-1-yl)]-acetic acid]
- IC50 ([3]; Table 2): 2 µM
- inhibition at 90 µM [4, 11]: 26%

SMILES: CCC1(CC(=O)O)CCC(=O)c2c1[nH]c1c(C(C)C)cccc21 (stereo not shown) [Example 11, [1-Ethyl-8-isopropyl-4-oxo-2,3,4,9-tetrahydro-1H-(carbazol-1-yl)]-acetic acid]
- inhibition at 3 µM [3, 10]: 40%
- inhibition at 90 µM [4, 11]: 85%

SMILES: CCC1(CC(=O)O)CCC(=O)c2c1[nH]c1cccc(Cl)c21 (stereo not shown) [Example 12, [1-Ethyl-5-chloro-4-oxo-2,3,4,9-tetrahydro-1H-(carbazol-1-yl)]-acetic acid]
- inhibition at 1 µM [3, 10]: 12%
- inhibition at 30 µM ([4]; Table 2, rhCOX-1, at 30 μM, read-out: % Inhibn of rhCOX-1): 5%

SMILES: CCC1(CC(=O)O)CCC(=O)c2c1[nH]c1c(F)ccc(F)c21 (stereo not shown) [Example 13, (1-Ethyl-5,8-difluoro-4-oxo-2,3,4,9-tetrahydro-1H-(carbazol-1-yl))-acetic acid]
- inhibition at 1 µM [3, 10]: 25%

SMILES: CCC1(CC(=O)O)CCC(=O)c2c1[nH]c1c(F)c(F)ccc21 (stereo not shown) [Example 14, (7.8-Difluoro-1-ethyl-4-oxo-2,3,4,9-tetrahydro-1H-(carbazol-1-yl))-acetic acid]
- IC50 ([3]; Table 2): 0.7 µM
- inhibition at 23 µM ([4]; Table 2, rhCOX-1, at 23 μM, read-out: % Inhibn of rhCOX-1): 50%

SMILES: C=CCC1(CC(=O)O)CCC(=O)c2c1[nH]c1c(F)ccc(F)c21 (stereo not shown) [Example 15, (1-Allyl-5,8-difluoro-4-oxo-2,3,4,9-tetrahydro-1H-(carbazol-1-yl))-acetic acid]
- inhibition at 1 µM [3, 10]: 30%

SMILES: CCCC1(CC(=O)O)CCC(=O)c2c1[nH]c1c(F)ccc(F)c21 (stereo not shown) [Example 16, (5,8-Difluoro-4-oxo-1-propyl-2,3,4,9-tetrahydro-1H-(carbazol-1-yl))-aceticacid]
- inhibition at 1 µM [3, 10]: 29%

SMILES: CCCC1(CC(=O)O)CCC(=O)c2c1[nH]c1cc(F)cc(F)c21 (stereo not shown) [Example 17, (5,7-Difluoro-1-propyl-4-oxo-2,3,4,9-tetrahydro-1H-(carbazol-1-yl))-aceticacid]
- inhibition at 1 µM [3, 10]: 13%

SMILES: CCc1cccc2c3c([nH]c12)C(CC)(CC(=O)O)OCC3=NO (stereo not shown) [Example 18, [1,8-Diethyl-4-hydroxyimino-1,3,4,9-tetrahydro-pyrano[3.4-b]indol-1-yl]-ace tic acid]
- inhibition at 3.3 µM [3, 12]: 50%
- inhibition at 90 µM [4, 13]: 96%

SMILES: CCc1cccc2c3c([nH]c12)C(CC)(CC(=O)O)OCC3=NNS(C)(=O)=O (stereo not shown) [Example 19, [1,8-Diethyl-4-(methanesulfonyl-hydrazono)-1,3,4,9-tetrahydro-pyrano [3,4-b]indol-1-yl]-acetic acid sodium salt]
- inhibition at 3.3 µM [3, 12]: 50%
- inhibition at 90 µM [4, 13]: 96%

SMILES: CCc1cccc2c3c([nH]c12)C(CC)(CC(=O)O)CCC3=NO (stereo not shown) [Example 20, (1,8-Diethyl-4-hydroxyimino-2,3,4,9-tetrahydro-1H-carbazol-1-yl)-acetic acid]
- inhibition at 1 µM [3, 12]: 18%

SMILES: CCc1cccc2c3c([nH]c12)C(CC)(CC(=O)O)OCC3 (stereo not shown) [etodolac]
- selectivity for inhibition of COX-2 [5]: tenfold
- G.I. safety ([6]; in vivo): improved G.I. safety

SMILES: COc1ccc2c(c1)c(CC(=O)O)c(C)n2C(=O)c1ccc(Cl)cc1 [indomethacin]
- usefulness in the treatment of Alzheimer's disease [7]: useful in the treatment of Alzheimer's disease
- selectivity for inhibition of COX-2 [5]: relatively non-selective inhibitor of COX-2
- G.I. safety ([6]; literature): adverse G.I. side effects

Reference: patent US5824699A, “Carbazole inhibitors of Cox-2” (American Home Products Corporation, priority 1998, dated 1998)
